Experimental data published in patent US9440941B2, “Substituted chroman-6-yloxy-cycloalkanes and their use as pharmaceuticals” (SANOFI, priority 2013, dated 2016).
Counter-ions that a name gives are not always drawn.

Molecular target: T1, human NCX1 (Homo sapiens, UniProt P32418)
T1 construct: expressed in transfected cells
Assay: Inhibition of Ca2+ influx into cells (NCX1 reverse mode), FLIPR Fluo-4 assay
Assay type: cell-based
Conditions: at 10 μM; NCX1 reverse mode; IC50 value not determined; read-out: Inhibition in % at 10 μM (NCX1rv)
Summary of the method: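 Ca2+ influx via reverse-mode exchange was evoked with gramicidin (20 µM final) after 45 min compound exposure at 16 °C in stably transfected CHO cells. Fluo-4 signal (520 nm) was followed on FLIPR at 2 s intervals. Max–min fluorescence gave percentage inhibition, from which IC50 was calculated.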

`Cc1ccccc1C1CCc2cc(OC3CCC(NCCCC4CCOC4)CC3)ccc2O1` (stereo not shown) [compound 198] gave an inhibition at 10 µM of 97%.

Same assay, conditions: at 10 μM; NCX1 reverse mode; IC50 value not determined; read-out: NCX1rv inhibition in % at 10 μM

`COCCCNC1CCC(Oc2ccc3c(c2)CCC(c2ccccc2C)O3)CC1` (stereo not shown) [compound 193] showed an inhibition at 10 µM of 99%.

Same assay, conditions: inhibition of NCX1 in reverse mode (Ca2+ influx into cells); read-out: NCX1rv IC50

Going from `N[C@H]1CC[C@H](Oc2ccc3c(c2)CCC(c2ccccc2)O3)CC1` (stereo partly drawn) [compound 5, trans-4-(2-Phenylchroman-6-yloxy)cyclohexylamine] to `Cc1cc(CN(Cc2cc(C)on2)[C@H]2CC[C@H](Oc3ccc4c(c3)CCC(c3ccccc3)O4)CC2)no1` (stereo partly drawn) [compound 82, N,N-Bis(5-methylisoxazol-3-ylmethyl)-[trans-4-(2-phenylchroman-6-yloxy)]-cyclohexylamine], the IC50 rises from 300 nM to 3800 nM (13-fold).

Going from `O=C(CN1CCCC1)N[C@H]1CC[C@H](Oc2ccc3c(c2)CCC(c2ccccc2)O3)CC1` (relative stereo) [compound 182] to `CSCCNC1CCC(Oc2ccc3c(c2)CCC(c2ccccc2)O3)CC1` (stereo not shown) [compound 111], the IC50 rises from 300 nM to 600 nM (2-fold). The first is the more potent here.

Compared with `COC(=O)CNC(=O)C1CCC(Oc2ccc3c(c2)CCC(c2ccccc2)O3)CC1` (single isomer, unassigned; stereoisomer 1) [compound 91, Methyl 2-{[cis-4-(2-phenylchroman-6-yloxy)cyclohexanecarbonyl]amino}acetate,stereoisomer 1 (2)], `Cc1noc(CCC(=O)N[C@H]2CC[C@H](Oc3ccc4c(c3)CCC(c3ccccc3F)O4)CC2)n1` (relative stereo) [compound 248] is 2-fold lower in IC50: 400 nM for the first, 200 nM for the second. The second is the more potent here.

`CNS(=O)(=O)CCNC(=O)C1CCC(Oc2ccc3c(c2)CCC(c2cccc(F)c2C)O3)CC1` (stereo not shown) [compound 275] and `Cc1noc(C)c1C(=O)N[C@H]1CC[C@H](Oc2ccc3c(c2)CCC(c2ccccc2F)O3)CC1` (relative stereo) [compound 242] are within 1.5-fold of each other in IC50: 400 nM for the first, 500 nM for the second.

First: Cc1n[nH]cc1CN[C@H]1CC[C@H](Oc2ccc3c(c2)CCC(c2ccccc2)O3)CC1 (stereo partly shown) [compound 66]
Second: Cc1cc(CC(=O)N[C@H]2CC[C@H](Oc3ccc4c(c3)CCC(c3ccccc3)O4)CC2)on1 (relative stereo) [compound 25]
The IC50 of the first is 2-fold higher: 400 nM for the first, 200 nM for the second. The second is the more potent here.

Compared with `COc1c(F)cccc1C1CCc2cc(OC3CCC(C(=O)NCCO)CC3)ccc2O1` (stereo not shown) [compound 302], `c1ccc(C2CCc3cc(OC4CCC(NCCC5CCOCC5)CC4)ccc3O2)cc1` (stereo not shown) [compound 120] is 2-fold higher in IC50: 400 nM for the first, 800 nM for the second. The first is the more potent here.

Compared with `Cc1c(F)cccc1C1CCc2cc(OC3CCC(C(=O)NC4CCCCC4O)CC3)ccc2O1` (single isomer, unassigned) [compound 287], `CC(C)SCCNC1CCC(Oc2ccc3c(c2)CCC(c2ccccc2)O3)CC1` (stereo not shown) [compound 119] is 11-fold higher in IC50: 100 nM for the first, 1100 nM for the second. The first is the more potent here.

`CC(C)CCCNC1CCC(Oc2ccc3c(c2)CCC(c2ccccc2)O3)CC1` (stereo not shown) [compound 107] and `CS(=O)(=O)NC[C@H]1CC[C@@H](Oc2ccc3c(c2)CCC(c2ccccc2)O3)CC1` (relative stereo) [compound 3] are within 1.5-fold of each other in IC50: 800 nM for the first, 700 nM for the second.

First: CCn1nccc1CNC(=O)C1CCC(Oc2ccc3c(c2)CCC(c2cccc(F)c2OC)O3)CC1 (stereo not shown) [compound 300]
Second: Cc1c(F)cccc1C1CCc2cc(OC3CCC(C(=O)NCCS(=O)(=O)N(C)C)CC3)ccc2O1 (stereo not shown) [compound 274]
The IC50 of the first is 1.5-fold lower: 400 nM for the first, 600 nM for the second. The first is the more potent here.

Compared with `O=C(CCn1cccn1)N[C@H]1CC[C@H](Oc2ccc3c(c2)CCC(c2ccccc2F)O3)CC1` (single isomer, unassigned) [compound 253], `CCSCCNC1CCC(Oc2ccc3c(c2)CCC(c2ccccc2F)O3)CC1` (stereo not shown) [compound 217] is 7.7-fold higher in IC50: 300 nM for the first, 2300 nM for the second. The first is the more potent here.

`CCCCNC1CCC(Oc2ccc3c(c2)CCC(c2ccccc2)O3)CC1` (stereo not shown) [compound 108] and `CSCCCN[C@H]1CC[C@H](Oc2ccc3c(c2)CCC(c2ccccc2)O3)CC1` (stereo partly drawn) [compound 48, N-(3-Methylsulfanylpropyl)-[trans-4-(2-phenylchroman-6-yloxy)]-cyclohexylamine] are within 1.5-fold of each other in IC50: 600 nM for the first, 500 nM for the second.

First: CN(C)C(=O)NC1CCC(Oc2ccc3c(c2)CCC(c2ccccc2)O3)CC1 (stereo not shown) [compound 16]
Second: CC(C)SCCNC1CCC(Oc2ccc3c(c2)CCC(c2ccccc2F)O3)CC1 (stereo not shown) [compound 232]
The IC50 of the first is 4.5-fold lower: 1300 nM for the first, 5900 nM for the second.

Compared with `O=C(N[C@H]1CC[C@H](Oc2ccc3c(c2)CCC(c2ccccc2F)O3)CC1)C1CC1` (relative stereo) [compound 239], `CC(C)(C)CN[C@H]1CC[C@H](Oc2ccc3c(c2)CCC(c2ccccc2)O3)CC1` (relative stereo) [compound 58, N-(2,2-Dimethylpropyl)-[trans-4-(2-phenylchroman-6-yloxy)]-cyclohexylamine] is 6-fold higher in IC50: 100 nM for the first, 600 nM for the second. The first is the more potent here.

First: O=C(NCc1ccno1)C1CCC(Oc2ccc3c(c2Cl)CCC(c2ccccc2)O3)CC1 (stereo not shown) [compound 292]
Second: CC1(O)CCC(Oc2ccc3c(c2)CCC(c2ccccc2)O3)CC1 (stereo not shown) [compound 163, 1-Methyl-4-(2-phenylchroman-6-yloxy)-cyclohexanol]
The IC50 of the first is 3.2-fold higher: 1900 nM for the first, 600 nM for the second.

First: N-(3,3-Dimethylbutyl)-4-(2-phenylchroman-6-yloxy)-cyclohexylamine [compound 152]
Second: Fc1ccccc1C1CCc2cc(OC3CCC(NCCN4CCOCC4)CC3)ccc2O1 (stereo not shown) [compound 224]
The IC50 of the first is 2.5-fold lower: 1400 nM for the first, 3500 nM for the second.

First: CCCNC1CCC(Oc2ccc3c(c2)CCC(c2ccccc2C)O3)CC1 (stereo not shown) [compound 205]
Second: N-But-3-enyl-4-(2-phenylchroman-6-yloxy)-cyclohexylamine [compound 148]
The IC50 of the first is 1.7-fold higher: 1500 nM for the first, 900 nM for the second. The second is the more potent here.

`CC(=O)NC[C@H]1CC[C@@H](Oc2ccc3c(c2)CCC(c2ccccc2)O3)CC1` (relative stereo) [compound 4] and `c1ccc(C2CCc3cc(O[C@H]4CC[C@H](NCc5nccs5)CC4)ccc3O2)cc1` (relative stereo) [compound 55] are the same in IC50: 400 nM for the first, 400 nM for the second.

`Cc1csc(CN[C@H]2CC[C@H](Oc3ccc4c(c3)CCC(c3ccccc3)O4)CC2)n1` (stereo partly drawn) [compound 52, N-[(4-Methylthiazol-2-yl)methyl]-[trans-4-(2-phenylchroman-6-yloxy)]-cyclohexylamine] and “N-(2-Methoxyethyl)-4-(2-phenylchroman-6-yloxy)-cyclohexylamine [compound 132]” are within 1.5-fold of each other in IC50: 500 nM for the first, 700 nM for the second.

Compared with `Cc1cc(CC(=O)N[C@H]2CC[C@H](Oc3ccc4c(c3)CCC(c3ccccc3F)O4)CC2)on1` (relative stereo) [compound 249], `Cc1c(F)cccc1C1CCc2cc(OC3CCC(C(=O)NCc4ccno4)CC3)ccc2O1` (stereo not shown) [compound 263] is 11-fold lower in IC50: 1100 nM for the first, 100 nM for the second. The second is the more potent here.

Compared with `NC[C@H]1CC[C@@H](Oc2ccc3c(c2)CCC(c2ccccc2)O3)CC1` (relative stereo) [compound 1, hydrochloride], `Cn1ccc(CN(Cc2ccn(C)n2)[C@H]2CC[C@H](Oc3ccc4c(c3)CCC(c3ccccc3)O4)CC2)n1` (stereo partly drawn) [compound 84, N,N-Bis(1-methylpyrazol-3-ylmethyl)-[trans-4-(2-phenylchroman-6-yloxy)]-cyclohexylamine] is 1.6-fold higher in IC50: 500 nM for the first, 800 nM for the second.

First: CSC(C)CCNC1CCC(Oc2ccc3c(c2)CCC(c2ccccc2C)O3)CC1 (stereo not shown) [compound 175]
Second: Cc1ccccc1C1CCc2cc(O[C@H]3CC[C@H](NCC4CCOC4)CC3)ccc2O1 (relative stereo) [compound 154, (Tetrahydrofuran-3-ylmethyl)-[trans-4-(2-o-tolyl-chroman-6-yloxy)-cyclohexyl]-amine]
The IC50 of the first is 1.6-fold higher: 3500 nM for the first, 2200 nM for the second.

Compared with `Cc1nc(CC(=O)N[C@H]2CC[C@H](Oc3ccc4c(c3)CCC(c3ccccc3)O4)CC2)c(C)s1` (relative stereo) [compound 40], `Cc1c(CCC(=O)N[C@H]2CC[C@H](Oc3ccc4c(c3)CCC(c3ccccc3F)O4)CC2)cnn1C` (relative stereo) [compound 258] is 1.5-fold lower in IC50: 300 nM for the first, 200 nM for the second.

First: CCCNC1CCC(Oc2ccc3c(c2)CCC(c2ccccc2F)O3)CC1 (stereo not shown) [compound 213]
Second: Cc1ncsc1CN[C@H]1CC[C@H](Oc2ccc3c(c2)CCC(c2ccccc2)O3)CC1 (stereo partly drawn) [compound 67, N-(4-Methylthiazol-5-ylmethyl)-[trans-4-(2-phenylchroman-6-yloxy)]-cyclohexylamine]
The IC50 of the first is 3.5-fold higher: 1400 nM for the first, 400 nM for the second. The second is the more potent here.

`O=C(CC(F)(F)F)N[C@H]1CC[C@H](Oc2ccc3c(c2)CCC(c2ccccc2F)O3)CC1` (relative stereo) [compound 240] and `Cc1n[nH]c(C)c1CC(=O)N[C@H]1CC[C@H](Oc2ccc3c(c2)CCC(c2ccccc2)O3)CC1` (relative stereo) [compound 43] are the same in IC50: 100 nM for the first, 100 nM for the second.

First: CCCCNC1CCC(Oc2ccc3c(c2)CCC(c2ccccc2F)O3)CC1 (stereo not shown) [compound 230]
Second: Fc1ccccc1C1CCc2cc(OC3CCC(NCCCOC4CCCC4)CC3)ccc2O1 (stereo not shown) [compound 229]
The IC50 of the first is 2.1-fold lower: 2900 nM for the first, 6000 nM for the second.

Going from `CCOCCCNC1CCC(Oc2ccc3c(c2)CCC(c2ccccc2)O3)CC1` (stereo not shown) [compound 112] to `OC1CCC(Oc2ccc3c(c2)CCC(c2ccccc2)O3)CC1` (stereo not shown) [compound 74, 4-(2-Phenylchroman-6-yloxy)cyclohexanol], the IC50 falls from 900 nM to 300 nM (3-fold).

Compared with `CSC(C)CCN[C@H]1CC[C@H](Oc2ccc3c(c2)CCC(c2ccccc2)O3)CC1` (stereo partly drawn) [compound 64, N-(3-Methylsulfanylbutyl)-[trans-4-(2-phenylchroman-6-yloxy)]-cyclohexylamine], `O=S1(=O)CCC(NC2CCC(Oc3ccc4c(c3)CCC(c3ccccc3F)O4)CC2)C1` (stereo not shown) [compound 210] is 2.2-fold higher in IC50: 500 nM for the first, 1100 nM for the second.

First: CCn1nccc1CNC(=O)C1CCC(Oc2ccc3c(c2)CC(C)C(c2ccccc2)O3)CC1 (stereo not shown) [compound 297]
Second: Cc1cccc(C)c1C1CCc2cc(O[C@H]3CC[C@H](NCC4CCOC4)CC3)ccc2O1 (relative stereo) [compound 171]
The IC50 of the first is 17-fold lower: 500 nM for the first, 8300 nM for the second.

First: CC(C)OCCCNC1CCC(Oc2ccc3c(c2)CCC(c2ccccc2F)O3)CC1 (stereo not shown) [compound 225]
Second: CCC(C)(O)C(=O)N[C@H]1CC[C@H](Oc2ccc3c(c2)CCC(c2ccccc2F)O3)CC1 (relative stereo) [compound 238]
The IC50 of the first is 39-fold higher: 3900 nM for the first, 100 nM for the second.

`Cc1c(F)cccc1C1CCc2cc(OC3CCC(C(=O)NCCO)CC3)ccc2O1` (stereo not shown) [compound 262] was tested, and the IC50 was 200 nM.
